According to patent publication US8889667B2 (Agios Pharmaceuticals, Inc, priority 2010, dated 2014):

Target: PKM2 (Homo sapiens, UniProt P14618)
Test: PKM2 Assay (activation, LDH-coupled, absorbance at 340 nm)
Format: biochemical
Conditions: Table 5
Outline: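 Read-out was the 340 nm NADH absorbance change at 25 °C in an LDH-coupled system (PEP 0.15 mM, NADH 180 μM, ADP 0.7 mM to initiate) in 50 mM Tris pH 7.5, 100 mM KCl, 5 mM MgCl2. PKM2 at 50 ng/well was first preincubated with compound for 30 min at 4 °C. Activation given as AC50.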

Chain of PKM2 (P14618 whole entry): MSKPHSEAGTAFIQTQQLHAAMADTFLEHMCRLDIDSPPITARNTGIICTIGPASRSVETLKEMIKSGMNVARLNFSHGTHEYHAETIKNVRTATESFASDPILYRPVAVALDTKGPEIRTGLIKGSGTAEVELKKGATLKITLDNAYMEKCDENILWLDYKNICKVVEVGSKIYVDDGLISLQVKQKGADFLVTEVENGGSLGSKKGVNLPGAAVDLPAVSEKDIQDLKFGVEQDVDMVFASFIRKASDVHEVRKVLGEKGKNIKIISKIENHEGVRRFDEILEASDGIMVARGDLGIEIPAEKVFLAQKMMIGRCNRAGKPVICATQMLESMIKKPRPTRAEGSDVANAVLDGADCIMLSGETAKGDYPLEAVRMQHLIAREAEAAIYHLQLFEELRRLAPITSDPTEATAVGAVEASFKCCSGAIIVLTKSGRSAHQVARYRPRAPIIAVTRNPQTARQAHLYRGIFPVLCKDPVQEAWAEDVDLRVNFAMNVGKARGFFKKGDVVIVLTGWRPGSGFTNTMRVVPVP

`O=C(c1ccc(NS(=O)(=O)c2cccc3cccnc23)nc1)N1CCN(Cc2cc(F)cc(F)c2)CC1` [Compound 413, N-(5-(4-(3,5-difluorobenzyl)piperazine-1-carbonyl)pyridin-2-yl)quinoline-8-sulfonamide] and `O=C(c1ccc(NS(=O)(=O)c2cccc3cccnc23)cn1)N1CCN(Cc2cc(F)cc(F)c2)CC1` [Compound 414, N-(6-(4-(3,5-difluorobenzyl)piperazine-1-carbonyl)pyridin-3-yl)quinoline-8-sulfonamide] fall in the same range of AC50: 100 to 500 nM for the first, 100 to 500 nM for the second.

`O=C(c1ccc(NS(=O)(=O)c2cccc3cccnc23)cn1)N1CCN(CC2CC2)CC1` [Compound 415, N-(6-(4-(cyclopropylmethyl)piperazine-1-carbonyl)pyridin-3-yl)quinoline-8-sulfonamide] and `O=C(c1ccc(NS(=O)(=O)c2cccc3cccnc23)cc1F)N1CCN(CC2CC2)CC1` [Compound 424, N-(4-(4-(cyclopropylmethyl)piperazine-1-carbonyl)-3-fluorophenyl)quinoline-8-sulfonamide] fall in the same range of AC50: 100 to 500 nM for the first, 100 to 500 nM for the second.

First: O=C(c1ccc(NS(=O)(=O)c2cccc3cccnc23)cn1)N1CCN(Cc2ccc(F)cc2)CC1 [Compound 416, N-(6-(4-(4-fluorobenzyl)piperazine-1-carbonyl)pyridin-3-yl)quinoline-8-sulfonamide]
Second: O=C(c1ccc(NS(=O)(=O)c2cccc3cccnc23)cc1F)N1CCN(Cc2ccc(F)cc2)CC1 [Compound 420, N-(3-fluoro-4-(4-(4-fluorobenzyl)piperazine-1-carbonyl)phenyl)quinoline-8-sulfonamide]
The AC50 of the first is higher: 100 to 500 nM for the first, less than 100 nM for the second.

`O=C(c1ccc(NS(=O)(=O)c2cccc3cccnc23)cc1)N1CCN(C(=O)C2CCOCC2)CC1` [Compound 417, N-(4-(4-(tetrahydro-2H-pyran-4-carbonyl)piperazine-1-carbonyl)phenyl)quinoline-8-sulfonamide] and `O=C(c1ccc(NS(=O)(=O)c2cccc3cccnc23)cc1)N1CCN(C(=O)C2CCOC2)CC1` (stereo not drawn) [Compound 418, N-(4-(4-(tetrahydrofuran-3-carbonyl)piperazine-1-carbonyl)phenyl)quinoline-8-sulfonamide] fall in the same range of AC50: 100 to 500 nM for the first, 100 to 500 nM for the second.

`O=C(c1ccc(NS(=O)(=O)c2cccc3cccnc23)cc1)N1CCN(CC2CCC2)CC1` [Compound 419, N-(4-(4-(cyclobutylmethyl)piperazine-1-carbonyl)phenyl)quinoline-8-sulfonamide] and `O=C(c1ccc(NS(=O)(=O)c2cccc3cccnc23)cc1)N1CCN(C[C@H]2CCOC2)CC1` [Compound 444, (R)— and (S)—N-(4-(4-((tetrahydrofuran-3-yl)methyl)piperazine-1-carbonyl)phenyl)quinoline-8-sulfonamide] cannot be ordered by AC50: less than 100 nM for the first, less than 100 nM for the second.

`O=C(c1ccc(NS(=O)(=O)c2cccc3cccnc23)cc1F)N1CCN(Cc2cc(F)cc(F)c2)CC1` [Compound 421, N-(4-(4-(3,5-difluorobenzyl)piperazine-1-carbonyl)-3-fluorophenyl)quinoline-8-sulfonamide] and `O=C(c1ccc(NS(=O)(=O)c2cccc3cccnc23)cc1Cl)N1CCN(Cc2cc(F)cc(F)c2)CC1` [Compound 426, N-(3-chloro-4-(4-(3,5-difluorobenzyl)piperazine-1-carbonyl)phenyl)quinoline-8-sulfonamide] cannot be ordered by AC50: less than 100 nM for the first, less than 100 nM for the second.

`O=C(c1ccc(NS(=O)(=O)c2cccc3cccnc23)cc1F)N1CCN(Cc2ccc(Cl)c(F)c2)CC1` [Compound 422, N-(4-(4-(4-chloro-3-fluorobenzyl)piperazine-1-carbonyl)-3-fluorophenyl)quinoline-8-sulfonamide] and `O=C(c1ccc(NS(=O)(=O)c2cccc3cccnc23)cc1Cl)N1CCN(Cc2ccc(Cl)c(F)c2)CC1` [Compound 432, N-(3-chloro-4-(4-(4-chloro-3-fluorobenzyl)piperazine-1-carbonyl)phenyl)quinoline-8-sulfonamide] fall in the same range of AC50: 100 to 500 nM for the first, 100 to 500 nM for the second.

`O=C(c1ccc(NS(=O)(=O)c2cccc3cccnc23)cc1F)N1CCN(Cc2cc(F)c(F)c(F)c2)CC1` [Compound 423, N-(3-fluoro-4-(4-(3,4,5-trifluorobenzyl)piperazine-1-carbonyl)phenyl)quinoline-8-sulfonamide] and `O=C(c1ccc(NS(=O)(=O)c2cccc3cccnc23)cc1Cl)N1CCN(Cc2cc(F)c(F)c(F)c2)CC1` [Compound 434, N-(3-chloro-4-(4-(3,4,5-trifluorobenzyl)piperazine-1-carbonyl)phenyl)quinoline-8-sulfonamide] cannot be ordered by AC50: less than 100 nM for the first, less than 100 nM for the second.

`O=C(c1ccc(NS(=O)(=O)c2cccc3cccnc23)cc1F)N1CCN(CC2CCOC2)CC1` (stereo not drawn) [Compound 425, N-(3-fluoro-4-(4-((tetrahydrofuran-3-yl)methyl)piperazine-1-carbonyl)phenyl)quinoline-8-sulfonamide] and `O=C(c1ccc(NS(=O)(=O)c2cccc3cccnc23)cc1F)N1CCN(CC2CCOCC2)CC1` [Compound 436, N-(3-fluoro-4-(4-((tetrahydro-2H-pyran-4-yl)methyl)piperazine-1-carbonyl)phenyl)quinoline-8-sulfonamide] cannot be ordered by AC50: less than 100 nM for the first, less than 100 nM for the second.

Compared with `O=C(c1ccc(NS(=O)(=O)c2cccc3cccnc23)cc1Cl)N1CCN(CC2CC2)CC1` [Compound 427, N-(3-chloro-4-(4-(cyclopropylmethyl)piperazine-1-carbonyl)phenyl)quinoline-8-sulfonamide], `O=C(c1ccc(NS(=O)(=O)c2cccc3cccnc23)cc1Cl)N1CCN(CC2CCCC2)CC1` [Compound 428, N-(3-chloro-4-(4-(cyclopentylmethyl)piperazine-1-carbonyl)phenyl)quinoline-8-sulfonamide] is higher in AC50: less than 100 nM for the first, 100 to 500 nM for the second.

`O=C(c1ccc(NS(=O)(=O)c2cccc3cccnc23)cc1Cl)N1CCN(CC2CCOC2)CC1` (stereo not drawn) [Compound 429, N-(3-chloro-4-(4-((tetrahydrofuran-3-yl)methyl)piperazine-1-carbonyl)phenyl)quinoline-8-sulfonamide] and `O=C(c1ccc(NS(=O)(=O)c2cccc3cccnc23)cc1Cl)N1CCN(CC2CCOCC2)CC1` [Compound 440, N-(3-chloro-4-(4-((tetrahydro-2H-pyran-4-yl)methyl)piperazine-1-carbonyl)phenyl)quinoline-8-sulfonamide] fall in the same range of AC50: 100 to 500 nM for the first, 100 to 500 nM for the second.

First: O=C(c1ccc(NS(=O)(=O)c2cccc3cccnc23)cc1)N1CCN(C(=O)C2CCCCO2)CC1 (stereo not drawn) [Compound 430, N-(4-(4-(tetrahydro-2H-pyran-2-carbonyl)piperazine-1-carbonyl)phenyl)quinoline-8-sulfonamide]
Second: O=C(c1ccc(NS(=O)(=O)c2cccc3cccnc23)cc1)N1CCN(C(=O)C2CCCO2)CC1 (stereo not drawn) [Compound 443, N-(4-(4-(tetrahydrofuran-2-carbonyl)piperazine-1-carbonyl)phenyl)quinoline-8-sulfonamide]
The AC50 of the first is lower: less than 100 nM for the first, 500 to 1000 nM for the second.

`O=C(c1ccc(NS(=O)(=O)c2cccc3cccnc23)cc1Cl)N1CCN(Cc2ccc(F)cc2)CC1` [Compound 431, N-(3-chloro-4-(4-(4-fluorobenzyl)piperazine-1-carbonyl)phenyl)quinoline-8-sulfonamide] and `[2H]C(c1ccc(F)cc1)N1CCN(C(=O)c2ccc(NS(=O)(=O)c3cccc4cccnc34)cc2)CC1` (stereo not drawn) [Compound 448, N-(4-(4-(4-fluorobenzyl)piperazine-1-carbonyl)phenyl)quinoline-8-sulfonamide-(D)] cannot be ordered by AC50: less than 100 nM for the first, less than 100 nM for the second.

First: O=C(c1ccc(NS(=O)(=O)c2cccc3cccnc23)cc1Cl)N1CCN(Cc2cc(F)c(F)cc2F)CC1 [Compound 433, N-(3-chloro-4-(4-(2,4,5-trifluorobenzyl)piperazine-1-carbonyl)phenyl)quinoline-8-sulfonamide]
Second: O=C(c1ccc(NS(=O)(=O)c2cccc3cccnc23)cc1Cl)N1CCN(CC2CCCO2)CC1 (stereo not drawn) [Compound 441, N-(3-chloro-4-(4-((tetrahydrofuran-2-yl)methyl)piperazine-1-carbonyl)phenyl)quinoline-8-sulfonamide]
The AC50 of the first is lower: less than 100 nM for the first, 1000 to 20000 nM for the second.

First: O=C(c1ccc(NS(=O)(=O)c2cccc3cccnc23)cc1F)N1CCN(CC2CCCCO2)CC1 (stereo not drawn) [Compound 435, N-(3-fluoro-4-(4-((tetrahydro-2H-pyran-2-yl)methyl)piperazine-1-carbonyl)phenyl)quinoline-8-sulfonamide]
Second: O=C(c1ccc(NS(=O)(=O)c2cccc3cccnc23)cc1F)N1CCN(CC2CCCO2)CC1 (stereo not drawn) [Compound 437, N-(3-fluoro-4-(4-((tetrahydrofuran-2-yl)methyl)piperazine-1-carbonyl)phenyl)quinoline-8-sulfonamide]
The AC50 of the first is higher: 100 to 500 nM for the first, less than 100 nM for the second.

`CC(C)(C1CC1)N1CCN(C(=O)c2ccc(NS(=O)(=O)c3cccc4cccnc34)cc2)CC1` [Compound 438, N-(4-(4-(2-cyclopropylpropan-2-yl)piperazine-1-carbonyl)phenyl)quinoline-8-sulfonamide] and `CC(C1CC1)N1CCN(C(=O)c2ccc(NS(=O)(=O)c3cccc4cccnc34)cc2)CC1` (stereo not drawn) [Compound 442, N-(4-(4-(1-cyclopropylethyl)piperazine-1-carbonyl)phenyl)quinoline-8-sulfonamide] cannot be ordered by AC50: less than 100 nM for the first, less than 100 nM for the second.

First: O=C(c1ccc(NS(=O)(=O)c2cccc3cccnc23)cc1Cl)N1CCN(CC2CCCCO2)CC1 (stereo not drawn) [Compound 439, N-(3-chloro-4-(4-((tetrahydro-2H-pyran-2-yl)methyl)piperazine-1-carbonyl)phenyl)quinoline-8-sulfonamide]
Second: O=C(c1ccc(NS(=O)(=O)c2cccc3cccnc23)cc1)N1CCN(C[C@@H]2CCOC2)CC1 [Compound 445, (R)— and (S)—N-(4-(4-((tetrahydrofuran-3-yl)methyl)piperazine-1-carbonyl)phenyl)quinoline-8-sulfonamide]
The AC50 of the first is higher: 100 to 500 nM for the first, less than 100 nM for the second.

`CCOC(=O)N1CCN(C(=O)c2ccc(NS(=O)(=O)c3cccc4cccnc34)nc2)CC1` [Compound 446, Ethyl 4-(6-(quinoline-8-sulfonamido)nicotinoyl)piperazine-1-carboxylate] and `CCOC(=O)N1CCN(C(=O)c2ccc(NS(=O)(=O)c3cccc4cccnc34)cn2)CC1` [Compound 447, Ethyl 4-(5-(quinoline-8-sulfonamido)picolinoyl)piperazine-1-carboxylate] fall in the same range of AC50: 1000 to 20000 nM for the first, 1000 to 20000 nM for the second.
